{"source": "patent US9265189B2", "about": "“Method for reducing damage by harmful organisms in corn cultivation” (SUMITOMO CHEMICAL COMPANY, LIMITED, priority 2012, dated 2016)", "format_in_all_cases": "in vivo", "key": {"Agriotes sordidus": {"tested_on": "Agriotes sordidus", "assay": "Field test, corn plants damaged by Agriotes sordidus after in-furrow spray (Example 3)", "details": "Example section 3: clothianidin 25 g/ha, in-furrow spray of Dantop 50WG aqueous suspension 100 L/ha, corn KUBRIK, 34 days after application; non-treatment section 34.6", "experimental": "A cultivated land was ditched at intervals of 75 cm to a depth of 3 cm from the soil surface, and the furrow was seeded with corn (Zea Mays, variety name: KUBRIK; hybrid variety) at intervals of 17 cm. A seeding density of corn was 78000 seeds/ha. Then, the furrow was spray-treated with an aqueous suspension of a clothianidin water dispersible granule (using a 50% water dispersible granule, trade name: Dantop 50WG, manufactured by Philagro) at 100 L/ha so that the application amount of clothianidin was 25 g/ha, and then a soil on the side of the furrow was gathered together to close the furrow. This was defined as an example section 3. For comparison, a non-treatment section, which was seeded with corn without application of a clothianidin water dispersible granule, was provided. In any section, four places were arranged by a randomized block method, with one place having an area of 54 m^2 (18 m×3 m). 34 days after application of the clothianidin water dispersible granule, the number of plants of corn damaged by Agriotes sordidus in each of the example section 3 and the non-treatment section was investigated, a damage plant rate was calculated in accordance with the following equation, and then an average damage plants rate of the four investigation sections was determined. Damage plant rate(%)=[(number of plants of corn damaged)/(number of plants of corn seeded)]×100"}, "[1]": {"tested_on": "Diabrotica virgifera virgifera and Agriotes lineatus", "assay": "Field test, corn lodged due to damage by Diabrotica virgifera virgifera and Agriotes lineatus (Example 4)", "details": "Example section 4: clothianidin 80 g/ha, in-furrow spray of Dantop 50WG 125 L/ha, corn DKC 5143 seed treated with Maxim XL, 165 days after application; non-treatment section 23", "experimental": "Ammonium phosphate (N:P:K=12:52:0) and urea (N:P:K=46:0:0), each of which being a fertilizer, were applied to the soil surface of a cultivated land at 100 kg/ha and 260 kg/ha, respectively, and the cultivated land was plowed. 24 days after fertilization, using a pneumatic seeder (disk furrow opener) equipped with a power sprayer, a cultivated land was ditched at intervals of 75 cm to a depth of 5 cm from the soil surface, and the furrow was seeded with corn (Zea Mays, variety name: DKC 5143; hybrid variety, manufactured by Monsanto). The cultivated land was seeded at intervals of 20 cm using, as a corn seed, one treated with a mixed agent of metalaxyl-M and fludioxonil (trade name: Maxim XL, manufactured by Syngenta). A seeding density of corn was 66667 seeds/ha. […] 165 days after application of the clothianidin water dispersible granule, the number of plants of corn lodged due to damage by Diabrotica virgifera virgifera and Agriotes lineatus in the furrows of the example section 4 and the non-treatment section, for which the number of plants of corn germinated was investigated, was investigated, a lodge rate was calculated in accordance with the following equation, and then an average lodge rate for the four investigation sections was determined. […]"}, "[2]": {"tested_on": "Diabrotica virgifera virgifera and Agriotes lineatus", "assay": "Field test, lodge rate, clothianidin in-furrow, herbicides plus cyprosulfamide on soil (Example 7)", "details": "clothianidin 50 g/ha in-furrow spray 125 L/ha, thiuram-treated seed, 165 days after application; example in present tense", "from_the_text": "A chemical fertilizer (N:P:K=15:15:15) is applied to the soil surface of a cultivated land at 300 kg/ha, and the cultivated land is then plowed. 7 days after fertilization, for suppressing generation of weeds, the soil surface of the whole cultivated land is spray-treated with a mixed liquid containing thiencarbazone-methyl and isoxaflutole, each of which being a herbicide, and cyprosulfamide which is a safener at 150 L/ha so that the application amounts of thiencarbazone-methyl, isoxaflutole and cyprosulfamide are 9.2 g/ha, 23 g/ha and 15 g/ha, respectively. 21 days after fertilization, using a pneumatic seeder (disk furrow opener) equipped with a power sprayer, a cultivated land is ditched at intervals of 75 cm to a depth of 5 cm from the soil surface, and the furrow is seeded with corn (Zea Mays; hybrid variety). […] 165 days after application of the aqueous suspension of clothianidin, the number of plants of corn lodged due to damage by Diabrotica virgifera virgifera and Agriotes lineatus in the furrows of the treatment section and the non-treatment section, for which the number of plants of corn germinated is investigated, is investigated, a lodge rate is calculated in accordance with the following equation, and then an average lodge rate for the four investigation sections is determined."}}, "data": [{"compound": "CN/C(=N\\[N+](=O)[O-])NCc1cnc(Cl)s1", "note": "[clothianidin]", "values": [{"measurement": "Damage plant rate (%)", "setting": "Agriotes sordidus", "result": 1.8, "unit": "%"}, {"measurement": "Lodge rate (%)", "setting": "[1]", "result": 4, "unit": "%"}, {"measurement": "Lodge rate compared to non-treatment section", "setting": "[2]", "result": "low lodge rate as compared to the non-treatment section"}]}]}
